ChEMBL document CHEMBL3621040, “Dicarabrol, a new dimeric sesquiterpene from Carpesium abrotanoides L” (Bioorg Med Chem Lett, 2015)
Values after ≈ are worked out from the molar mass of the structure shown.

Experiments:
[1] = test system: Influenza A virus; test: Antiviral activity against Influenza A virus H1N1 infected in MDCK cells assessed as protection against virus-induced cytopathic effect after 48 hrs by crystal violet staining; format: functional, organism-based
[2] = test system: DU-145; test: Cytotoxicity against human DU145 cells after 72 hrs by CCK8 assay; format: functional, cell-based; settings: DU-145, 72 h
[3] = test system: MCF7; test: Cytotoxicity against human MCF7 cells after 72 hrs by CCK8 assay; format: functional, cell-based; settings: MCF7, 72 h
[4] = test system: Influenza A virus; test: Antiviral activity against Influenza A virus H3N2 infected in MDCK cells assessed as protection against virus-induced cytopathic effect after 48 hrs by crystal violet staining; format: functional, organism-based
[5] = test system: HeLa; test: Cytotoxicity against human HeLa cells after 72 hrs by CCK8 assay; format: functional, cell-based
[6] = test system: K562; test: Cytotoxicity against human K562 cells after 72 hrs by CCK8 assay; format: functional, cell-based; settings: K562, 72 h
[7] = test system: HL-60; test: Cytotoxicity against human HL60 cells after 72 hrs by CCK8 assay; format: functional, cell-based; settings: HL-60, 72 h
[8] = test system: NCI-H1975; test: Cytotoxicity against human NCI-H1975 cells after 72 hrs by CCK8 assay; format: functional, cell-based; settings: NCI-H1975, 72 h
[9] = test system: A549; test: Cytotoxicity against human A549 cells after 72 hrs by CCK8 assay; format: functional, cell-based; settings: A549, 72 h
[10] = test system: MOLT-4; test: Cytotoxicity against human MOLT4 cells after 72 hrs by CCK8 assay; format: functional, cell-based; settings: MOLT-4, 72 h
[11] = test system: U-937; test: Cytotoxicity against human U937 cells after 72 hrs by CCK8 assay; format: functional, cell-based; settings: U-937, 72 h
[12] = test system: Mycobacterium tuberculosis; test: Antimycobacterial activity against Mycobacterium tuberculosis H37Ra after 7 days by alamar blue dye assay; format: functional; settings: 168 h
[13] = Cytotoxicity against human SGC7901 cells after 72 hrs by CCK8 assay; format: functional, cell-based; settings: SGC-7901, 72 h

SMILES	IC50 [1]	IC50 [2]	IC50 [3]	IC50 [4]	IC50 [5]	IC50 [6]	IC50 [7]	IC50 [8]	IC50 [9]	IC50 [10]	IC50 [11]	MIC [12]	IC50 [13]
C=C1C(=O)O[C@@H]2C[C@]3(C)[C@@H](CCC(C)O)C[C@@]4(C(=O)O[C@@H]5C[C@@H]6[C@@H](CC[C@H](C)O)[C@@H]6C[C@@H]54)[C@@H]3C[C@H]12 (stereo not given in full)	15900 nM	310 nM	3300 nM	30000 nM	610 nM	1200 nM	100 nM	1400 nM	2700 nM	1300 nM	150 nM	3.7 µM (≈ 1.8 µg/mL)	710 nM
C=C1C(=O)O[C@H]2C[C@@]3(C)O[C@@H]3CC[C@@]3(C)O[C@@H]3C[C@H]12	10800 nM	380 nM	4100 nM	11600 nM	1000 nM	1700 nM	180 nM	5400 nM	2000 nM	1200 nM	210 nM	6 µM (≈ 1.59 µg/mL)	6400 nM
NNC(=O)c1ccncc1 [ISONIAZID]	–	–	–	–	–	–	–	–	–	–	–	2 µM (≈ 0.274 µg/mL)	–
CCOC(=O)C1=C[C@@H](OC(CC)CC)[C@H](NC(C)=O)[C@@H](N)C1 [OSELTAMIVIR]	25 nM	–	–	15 nM	–	–	–	–	–	–	–	–	–
CC(=O)O[C@H]1C(=O)[C@@]2(C)[C@H]([C@H](OC(=O)c3ccccc3)[C@]3(O)C[C@H](OC(=O)[C@H](O)[C@@H](NC(=O)c4ccccc4)c4ccccc4)C(C)=C1C3(C)C)[C@]1(OC(C)=O)CO[C@@H]1C[C@@H]2O [PACLITAXEL]	–	3100 nM	–	–	–	3800 nM	3800 nM	2800 nM	2100 nM	2700 nM	2100 nM	–	9800 nM
C=C1C(=O)O[C@H]2C[C@@H](C)[C@@H]3CC[C@H](O)[C@@]3(C)C[C@H]12 [PSEUDOGUAIANOLIDE]	29300 nM	3100 nM	11000 nM	47300 nM	6000 nM	17000 nM	2400 nM	13000 nM	6200 nM	5500 nM	2200 nM	7.6 µM (≈ 1.9 µg/mL)	22000 nM
